Test results from patent US5244795A, “Processes for preparing cholesterol lowering compounds” (Merck & Co., Inc., priority 1992, dated 1993).

Columns and labels:
Experiment in all cases: FISP disc diffusion assay
Type in all cases: cell-based
Set-up in all cases: key: F: clear zone, fuzzy edges; S: slightly hazy zone (some growth observed throughout zone); H: hazy zone (considerable growth observed throughout zone); V: very hazy zone (zone of inhibition is barely discernable); R: zone displays a ring of resistant growth; no qualifier: clear zone throughout, sharp edges
Conditions in all cases: 250 μg/ml in CH2Cl2
Ceratocystis ulmi = test system: Ceratocystis ulmi
Excerpt: (§1) The FISP assay employs disc diffusion susceptibility testing methods to generate a spectrum of activity against a panel of representative yeasts, filamentous fungi and bacteria.
(§2) The filamentous fungi used in the assay were Penicillium sp. Aspergillus niger, Trichoderma sp., Phoma sp., Trichoderma lignorum, Fusarium oxysporum, Ustilago maydis, Ceratocystis ulmi, Alternaria soloni, Verticillium serrae, Botrytis allii, Scopulariopsis communis, Cephalosporium sp., Cercospora beticola, Rhizomucor miehei, Aspergillus flavus and Aspergillus fumigatus.
(§3) For carrying out the assay, seeded assay plates are prepared in the following manner according to the type of assay strain.
(§4) Inocula for filamentous fungi are prepared by scraping the surface of stock plates maintained on potato dextrose agar with a moistened sterile dacron swab. The spores and mycelia are then suspended in 10 milliliters of sterile potato dextrose broth and adjusted to 65 percent transmission at 660 nm.
(§5) Assay plates for the yeasts and filamentous fungi are prepared by diluting the inoculum into appropriate molten agar medium, cooled to 45° C. to obtain a final concentration of 4 percent.
(§6) The seeded agar media thus prepared are dispensed into petri dishes for assays (11 ml per dish).
(§7) The samples to be tested for production of antifungal agent are applied to 6.2 mm filter paper discs (25 μl/disc) and air dried at 24° C. When the sample to be tested is crude broth, it may be centrifuged prior to application. The discs bearing the material to be tested are then applied employing sterile conditions to the seeded assay plates. The assay plates are then incubated at either 28° C. or 37° C. for 24 hours. In one of the assays for Bacillus subtilis, the sample is applied to a disc previously impregnated with 4M potassium chloride at 25 μl/disc and then air dried.
(§8) Following incubation, the inhibition zones are measured and recorded. The measurements are made from the extreme edge where growth differs from the background zone. The zones are noted as to appearance as fuzzy edge and clear center, hazy throughout, slightly hazy, very hazy or ringed.
(§9) FISP data is reported as the diameter (in mm.) of the zone of inhibition of growth in agar diffusion assays. The zone is determined by measuring growth that differs from the background lawn. A qualifier is also added to describe the zone quality as listed below: no qualifier: clear zone throughout, sharp edges

Botrytis allii = test system: Botrytis allii
Excerpt: as §1, §2, §3, §4, §5, §6, §7, §8, §9

Verticillium serrae = test system: Verticillium serrae
Excerpt: as §1, §2, §3, §4, §5, §6, §7, §8, §9

Cephalosporium sp. = test system: Cephalosporium sp.
Excerpt: as §1, §2, §3, §4, §5, §6, §7, §8, §9

Aspergillus flavus = test system: Aspergillus flavus
Excerpt: as §1, §2, §3, §4, §5, §6, §7, §8, §9

Trichoderma sp. = test system: Trichoderma sp.
Excerpt: as §1, §2, §3, §4, §5, §6, §7, §8, §9

Trichoderma lignorum = test system: Trichoderma lignorum
Excerpt: as §1, §2, §3, §4, §5, §6, §7, §8, §9

Ustilago maydis = test system: Ustilago maydis
Excerpt: as §1, §2, §3, §4, §5, §6, §7, §8, §9

Alternaria solani = test system: Alternaria solani
Excerpt: as §1, §2, §3, §4, §5, §6, §7, §8, §9

Rhizomucor miehei = test system: Rhizomucor miehei
Excerpt: as §1, §2, §3, §4, §5, §6, §7, §8, §9

Penicillium sp. = test system: Penicillium sp.
Excerpt: as §1, §2, §3, §4, §5, §6, §7, §8, §9

Fusarium oxysporum = test system: Fusarium oxysporum
Excerpt: as §1, §2, §3, §4, §5, §6, §7, §8, §9

Aspergillus fumigatus = test system: Aspergillus fumigatus
Excerpt: as §1, §2, §3, §4, §5, §6, §7, §8, §9

For `CC(/C=C/C=C(\C)C(O)C(C)C(=O)O[C@H]1C[C@H](C)C=C2C=C[C@@]3(C)O[C@@H](O)CC(=O)[C@]3(C)[C@H]21)=C\C=C\C(=O)O` (stereo partly shown) [Compound A], the zone quality qualifier (Ceratocystis ulmi) was “V”, the zone quality qualifier (Botrytis allii) was “S” and the zone quality qualifier (Verticillium serrae) was “S”. For the same molecule, the zone quality qualifier (Cephalosporium sp.) was “F”, the zone quality qualifier (Aspergillus flavus) was “H” and the zone quality qualifier (Trichoderma sp.) was “S”. The zone quality qualifier (Trichoderma lignorum) was “F”, the zone quality qualifier (Ustilago maydis) was “V” and the zone quality qualifier (Alternaria solani) was “F”. For the same molecule, the zone quality qualifier (Rhizomucor miehei) was “H”, the zone quality qualifier (Penicillium sp.) was “H” and the zone quality qualifier (Fusarium oxysporum) was “S”. For the same molecule, the zone quality qualifier (Aspergillus fumigatus) was “S”.
